Molecules are shown by their SMILES. Where “and” joins values, the source holds several entries; their conditions need not be identical. Identical values can stand only once.

We go through 1 molecule from patent publication US11884747B2, “Compstatin analogs with increased solubility and improved pharmacokinetic properties” (The Trustees of the University of Pennsylvania, priority 2018, dated 2024).

For data set [1], the system named is complement classical pathway. In words: Classical pathway activation (C3b deposition) ELISA in human plasma with or without rabbit vitreous. Format: biochemical. As to conditions: in the absence of vitreous. On the procedure:
An alternative explanation to the one presented above is that the vitreous contains additional unidentified factors that associate with the Cp40-KKK analog. To investigate whether an unidentified vitreous factor impacts the complement inhibitory activity of lysine containing compounds, complement activation assays were performed using vitreous samples. Briefly, human plasma was incubated with OVA-anti-OVA immune-complexes in the presence of serial dilutions of the Cp40-based analogs mixed with rabbit vitreous. Levels of classical pathway activation (C3b deposition) were determined by ELISA using a polyclonal anti-human C3 antibody conjugated with HRP (MP Biomedicals, Solon, OH) (FIG. 20).

The next data set concerns the target T1, human C3b (Homo sapiens, UniProt P01024).
T1 construct: purchased Complement Technology, Inc., Tyler, TX
In words: SPR binding affinity and kinetic profile with immobilized C3b. As to conditions: 25 °C.

The conditions of data set [2]: at the stated concentration; indicator paper.
The nature of data set [3]: Residence time in the vitreous after single intravitreal injection (WES and SPR competition assay). Format: in vivo, cynomolgus monkeys. Conditions: 100 μg i.v.t. On the procedure: To determine the residence time of mPEG(3 k)-Cp40, mPEG(1 k)-Cp40, Cp40-KK, and Cp40-KKK in the vitreous of cynomolgus macaques, these Cp40-based analogs were administered intravitreally (i.v.t.) to the animals after induction of light ketamine anesthesia (10-15 mg/kg, by intramuscular injection (i.m.)) and dilation of the pupils with tropicamide/phenylephrine ophthalmic solution (see Table 6 for study design).
For i.v.t. injection, the cynomolgus monkeys were anesthetized with a combination of ketamine (15-25 mg/kg, i.m.) and xylazine (2 mg/kg, i.m.) and the eye was cleaned with povidone-iodine solution. After application of oxybuprocaine hydrochloride solution (Benoxil® ophthalmic solution 0.4%) to the cornea as a local anesthetic, the Cp40-based analogs were administered to the animals by i.v.t. injection into either the right (G1, G3) or left (G2, G4) eye of each animal. Immediately following each injection, a single topical dose of 0.5% levofloxacin was administered. After i.v.t. injection of mPEG(3 k)-Cp40, mPEG(1 k)-Cp40, Cp40-KK, and Cp40-KKK, vitreous fluid samples (about 50 μL each) were withdrawn from Cp40-based analog-treated eyes on days 14, 28, 42, (G1, G2, G3, G4), 56, 73, 90 (G1, G2) (this was done either three times or six times). Samples were collected on ice and stored in a deep freezer (˜79.3 to −68.5° C.) until further analysis. […] Presence and concentration of the Cp40-based analogs was determined using either the simple western technology (WES, ProteinSimple, San Jose, CA), or surface plasmon resonance (SPR)-based real-time measurement of binding kinetics on a Cp40-KKK immobilized chip (see detailed methods below). Similar results with regard to the intravitreal residence time and concentration levels of the test compounds were obtained regardless of the quantification method selected.
To quantify the levels of all test compounds in vitreous samples collected at different time points following i.v.t. injection (see FIG. 15), WES analysis was performed on a WES instrument (ProteinSimple, San Jose, CA) using a 2 to 40 kDa Separation Module and Anti-Rabbit Detection Module according to the manufacturers' instructions. […] The resulting electropherograms were evaluated using the Compass software (ProteinSimple, San Jose, CA). The following criteria were used to discriminate low peptide signals from background: The peak signal-to-noise (S/N) ratio given by the software must be ≥10, and the peak height/baseline ratio (calculated manually from the peak height and baseline values given by the software) must be equal to or greater than 3. […] Shown in FIG. 15 is a representative standard curve generated using the WES system and bands obtained upon running pre-determined amounts of purified peptide spiked into rabbit vitreous samples. […]

For data set [4], the system named is classical pathway of complement. In words: Classical pathway complement inhibition ELISA (C3b deposition) in normal human plasma. The class given is biochemical. Conditions: human plasma diluted 1:40; mean of at least three experiments. On the procedure: For this purpose, microtiter wells (NUNC) were coated with 50 μl of 1% ovalbumin in PBS (pH 7.4) at ambient temperature for 2 h. The wells were blocked with 200 μl of 1% BSA in PBS for 1 h, then coated with 50 μl of 1:1000 α-ovalbumin polyclonal antibody in PBS for 1 h. Between each step, the plate was washed thrice with 200 μl of 0.05% Tween 20 in PBS (PBS-T); 30 μl of VBS (Veronal buffer 1×; 5 mM veronal, pH 7.4, containing 150 mM NaCl, 0.5 mM CaCl2 and 0.5 mM MgCl2) were placed in all but the first well of each row of the 96-well plate, and 5 μM peptide solutions in VBS were prepared. […] Human plasma diluted 1:40 in VBS was incubated for 15 min with peptide of 0.005 to 2.5 μM. After washing with PBS-T, 50 μl/well of 1:1000 goat a-human C3 HRP conjugated antibody in 1% BSA in PBS was added to the wells and incubated for 1 h at room temperature. Complement fixation indicating activation was detected by the addition of HRP substrate (0.05% ABTS and 0.1% of 30% aqueous H2O2 in 0.1 M sodium citrate, pH 4.2) and read at 405 nm. The absorbance data obtained at 405 nm were translated into % inhibition, considering 100% to be equal to complement activation in the absence of peptide. The percent inhibition was plotted against the logarithm of concentrations, and the resulting data set was fitted to the equation “log(inhibitor) vs. normalized response” using GraphPad Prism 5 (La Jolla, CA). IC50 values were obtained from the fitted parameters of the mean of at least three independent experiments. Cp40 was always used as the internal control.

The next data set deals with C3. Conditions: Qu et al. (2013); cited from earlier work.
Data set [5] is described as follows: Pharmacokinetics in NHP plasma after single s.c. injection, with plasma C3 levels. As to conditions: single s.c. 2 mg/kg; 2 mg/kg.

T1 sequence (P01024 23-667 limits assumed): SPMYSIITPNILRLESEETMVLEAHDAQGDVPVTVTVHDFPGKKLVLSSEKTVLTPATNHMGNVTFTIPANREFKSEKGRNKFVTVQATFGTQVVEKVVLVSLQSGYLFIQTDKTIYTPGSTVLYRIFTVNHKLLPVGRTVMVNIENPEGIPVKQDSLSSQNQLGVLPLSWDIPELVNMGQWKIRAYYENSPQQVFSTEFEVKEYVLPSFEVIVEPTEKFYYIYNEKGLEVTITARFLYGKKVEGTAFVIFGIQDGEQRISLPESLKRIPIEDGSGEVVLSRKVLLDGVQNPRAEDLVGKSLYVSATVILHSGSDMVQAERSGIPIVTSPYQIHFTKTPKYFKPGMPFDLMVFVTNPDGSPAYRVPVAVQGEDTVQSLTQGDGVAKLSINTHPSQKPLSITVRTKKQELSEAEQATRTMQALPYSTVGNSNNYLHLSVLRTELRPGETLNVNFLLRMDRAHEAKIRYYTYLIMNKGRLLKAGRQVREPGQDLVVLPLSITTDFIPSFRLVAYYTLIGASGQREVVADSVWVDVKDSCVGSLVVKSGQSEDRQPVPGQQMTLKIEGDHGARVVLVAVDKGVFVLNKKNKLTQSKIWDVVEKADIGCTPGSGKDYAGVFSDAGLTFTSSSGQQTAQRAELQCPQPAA
T1 sequence (P01024 749-1663 partner limits assumed): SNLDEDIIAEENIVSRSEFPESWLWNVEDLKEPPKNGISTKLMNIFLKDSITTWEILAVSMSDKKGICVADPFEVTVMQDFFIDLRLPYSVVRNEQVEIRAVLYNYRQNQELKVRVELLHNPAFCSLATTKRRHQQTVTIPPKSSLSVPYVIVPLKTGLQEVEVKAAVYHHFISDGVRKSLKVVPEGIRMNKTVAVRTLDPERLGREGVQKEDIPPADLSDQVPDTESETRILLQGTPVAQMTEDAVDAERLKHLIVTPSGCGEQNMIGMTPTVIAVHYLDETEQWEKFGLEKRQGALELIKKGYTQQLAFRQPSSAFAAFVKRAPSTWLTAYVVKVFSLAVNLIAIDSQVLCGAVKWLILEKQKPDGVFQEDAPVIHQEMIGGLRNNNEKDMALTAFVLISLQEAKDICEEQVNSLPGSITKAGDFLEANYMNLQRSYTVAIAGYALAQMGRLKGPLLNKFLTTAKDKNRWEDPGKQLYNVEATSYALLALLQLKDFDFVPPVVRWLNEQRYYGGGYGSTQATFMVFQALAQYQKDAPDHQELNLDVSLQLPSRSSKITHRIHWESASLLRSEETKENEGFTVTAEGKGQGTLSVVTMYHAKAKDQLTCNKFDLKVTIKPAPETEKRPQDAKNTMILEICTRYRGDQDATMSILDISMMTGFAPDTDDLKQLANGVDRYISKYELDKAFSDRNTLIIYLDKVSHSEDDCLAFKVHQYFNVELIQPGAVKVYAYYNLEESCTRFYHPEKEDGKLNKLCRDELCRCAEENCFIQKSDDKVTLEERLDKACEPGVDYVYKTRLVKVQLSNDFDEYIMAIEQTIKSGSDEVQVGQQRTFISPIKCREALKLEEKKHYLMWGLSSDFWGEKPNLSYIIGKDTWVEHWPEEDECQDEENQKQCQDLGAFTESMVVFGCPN

For `CC[C@H](C)[C@H](NC(=O)[C@H](N)Cc1ccc(O)cc1)C(=O)N[C@H]1CSSC[C@@H](C(=O)N(C)[C@H](C(N)=O)[C@@H](C)CC)NC(=O)[C@H](CCCNC(=N)N)NC(=O)[C@H](Cc2c[nH]cn2)NC(=O)[C@H](C)NC(=O)CN(C)C(=O)[C@H](Cc2c[nH]c3ccccc23)NC(=O)[C@H](CC(=O)O)NC(=O)[C@H](CCC(N)=O)NC(=O)[C@H](Cc2cn(C)c3ccccc23)NC(=O)[C@H](C(C)C)NC1=O` [Cp40, DTyr-Ile-[Cys-Val-Trp(Me)-Gln-Asp-Trp-Sar-Ala-His-Arg-Cys]-mIle-NH2, reference compound], the “complement classical pathway inhibitory activity” value in data set [1] is reported as “inhibitory activity in a dose-dependent manner”. The “kd, dissociation constant” value at human C3b (1:1 Langmuir model) is on record as 1.84 ± 0.40 10^−3s^−1. The Kd at human C3b (KD=kd/ka, read-out: KD, equilibrium dissociation constant) was found to be 0.53 ± 0.14 nM. In addition, in data set [2], the “pH of the peptide solution in PBS” value was determined as 7.5. In addition, the detection in vitreous entry in data set [3] is “no detection of any compound was observed after one month”. The IC50 in data set [4] was 56.8 ± 3 nM. Besides, at C3, the “binding affinity for C3” value is “subnanomolar” and the “binding affinity for C3 higher than that of the parent peptide” value was ~6,000 fold. Besides, the “C3 saturation time (peptide above plasma level of C3)” value in data set [5] was 4 to 5 h and ~4.5 h.
